# Data published in patent publication US20090099158A1, “TETRAHYDROISOQUINOLINE COMPOUNDS AS MODULATORS OF THE HISTAMINE H3 RECEPTOR” (priority 2007, published 2009).
# Target: T1, cloned human H3 receptors (Homo sapiens, UniProt Q9Y5N1)
# T1 construct: expressed in transfected cells; host or cells: SK-N-MC cells
# Test: H3 Receptor Binding (Human)
# Details: cloned human H3 receptors stably expressed in SK-N-MC cells; average of the results obtained
# Experimental: Binding of compounds to the cloned human H3 receptors, stably expressed in SK-N-MC cells, was performed as described by Barbier, A. J. et al. (Br. J. Pharmacol. 2004, 143(5), 649-661). Data for compounds tested in this assay are presented in Table 1 as an average of the results obtained.
# T1 sequence (Q9Y5N1 whole entry): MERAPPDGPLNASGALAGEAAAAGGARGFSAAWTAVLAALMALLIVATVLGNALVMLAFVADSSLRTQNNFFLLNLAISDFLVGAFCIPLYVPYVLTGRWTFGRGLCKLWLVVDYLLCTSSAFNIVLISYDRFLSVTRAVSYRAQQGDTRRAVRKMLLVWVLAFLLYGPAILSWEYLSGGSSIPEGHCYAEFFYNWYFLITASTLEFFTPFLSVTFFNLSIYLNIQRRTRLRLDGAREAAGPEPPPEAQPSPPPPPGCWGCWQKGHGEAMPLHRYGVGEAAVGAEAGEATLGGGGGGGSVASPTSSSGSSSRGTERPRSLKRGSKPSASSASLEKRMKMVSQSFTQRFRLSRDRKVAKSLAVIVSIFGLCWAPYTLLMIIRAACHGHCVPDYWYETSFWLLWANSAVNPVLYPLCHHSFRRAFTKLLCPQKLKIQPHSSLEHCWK
row,Structure (SMILES),Ki [nM]
1,"O=C(c1ccc2c(c1)CCN(C(=O)c1ccc(F)c(Cl)c1)C2)N1CCCN(C2CCC2)CC1 [Example 145, (3-Chloro-4-fluoro-phenyl)-[6-(4-cyclobutyl-[1,4]diazepane-1-carbonyl)-3,4-dihydro-1H-isoquinolin-2-yl]-methanone]",1
2,"CO[C@H]1CC[C@H](C(=O)N2CCc3cc(C(=O)N4CCCN(C5CCC5)CC4)ccc3C2)CC1 [Example 147, trans-[6-(4-Cyclobutyl-[1,4]diazepane-1-carbonyl)-3,4-dihydro-1H-isoquinolin-2-yl]-(4-methoxy-cyclohexyl)-methanone]",1
3,"O=C(c1ccc2c(c1)CCN(C(=O)C1CCCCC1)C2)N1CCN2CCCCC2C1 (stereo not shown) [Example 152, Cyclohexyl-[6-(octahydro-pyrido[1,2-a]pyrazine-2-carbonyl)-3,4-dihydro-1H-isoquinolin-2-yl]-methanone]",9
4,"CN(C)C1CCN(C(=O)c2ccc3c(c2)CCN(C(=O)C2CCCCC2)C3)CC1 [Example 154, Cyclohexyl-[6-(4-dimethylamino-piperidine-1-carbonyl)-3,4-dihydro-1H-isoquinolin-2-yl]-methanone]",441
5,"O=C(c1ccc2c(c1)CCN(C(=O)C1CCCCC1)C2)N1CCN(C2CCCC2)CC1 [Example 159, Cyclohexyl-[6-(4-cyclopentyl-piperazine-1-carbonyl)-3,4-dihydro-1H-isoquinolin-2-yl]-methanone]",37
6,"O=C(c1ccc2c(c1)CCN(C(=O)C1CCCCC1)C2)N1CCN(C2CCCCC2)CC1 [Example 160, Cyclohexyl-[6-(4-cyclohexyl-piperazine-1-carbonyl)-3,4-dihydro-1H-isoquinolin-2-yl]-methanone]",84
7,"O=C(c1ccc2c(c1)CCN(C(=O)C1CCCCC1)C2)N1CC2CN(C3CCC3)CC2C1 (stereo not shown) [Example 163, (5-Cyclobutyl-hexahydro-pyrrolo[3,4-c]pyrrol-2-yl)-(2-cyclohexanecarbonyl-1,2,3,4-tetrahydro-isoquinolin-6-yl)-methanone]",170
8,"O=C(C1CCCCC1)N1CCc2cc(C(=O)N3C[C@@H]4C[C@H]3CN4C3CCC3)ccc2C1 [Example 164, (1S,4S)-(5-Cyclobutyl-2,5-diaza-bicyclo[2.2.1]hept-2-yl)-(2-cyclohexanecarbonyl-1,2,3,4-tetrahydro-isoquinolin-6-yl)-methanone]",1150
9,"O=C(C1CCCCC1)N1CCc2cc(CN3CCCCC3)ccc2C1 [Example 166, Cyclohexyl-(6-piperidin-1-ylmethyl-3,4-dihydro-1H-isoquinolin-2-yl)-methanone]",45
10,"O=C(c1ccc2c(c1)CCN(C1CCCC1)C2)N1CCOCC1 [Example 172, (2-Cyclopentyl-1,2,3,4-tetrahydro-isoquinolin-6-yl)-morpholin-4-yl-methanone]",2800
11,"CC(C)N1CCc2cc(C(=O)N3CCCCC3)ccc2C1 [Example 173, (2-Isopropyl-1,2,3,4-tetrahydro-isoquinolin-6-yl)-piperidin-1-yl-methanone]",1800
12,"CC(C)N1CCc2cc(C(=O)N3CCOCC3)ccc2C1 [Example 174, (2-Isopropyl-1,2,3,4-tetrahydro-isoquinolin-6-yl)-morpholin-4-yl-methanone]",2140
13,"CC(C)N1CCc2cc(C(=O)N3CCC(C(C)(C)C)CC3)ccc2C1 [Example 176, (4-tert-Butyl-piperidin-1-yl)-(2-isopropyl-1,2,3,4-tetrahydro-isoquinolin-6-yl)-methanone]",250
14,"CC(C)N1CCc2cc(C(=O)N3CCC(C(C)(C)O)CC3)ccc2C1 [Example 178, [4-(1-Hydroxy-1-methyl-ethyl)-piperidin-1-yl]-(2-isopropyl-1,2,3,4-tetrahydro-isoquinolin-6-yl)-methanone]",3300
15,"CCCN1CCc2cc(C(=O)N3CCOCC3)ccc2C1 [Example 180, Morpholin-4-yl-(2-propyl-1,2,3,4-tetrahydro-isoquinolin-6-yl)-methanone]",9000
16,"CCCN1CCc2cc(C(=O)N3CCN4CCCCC4C3)ccc2C1 (stereo not shown) [Example 181, (Octahydro-pyrido[1,2-a]pyrazin-2-yl)-(2-propyl-1,2,3,4-tetrahydro-isoquinolin-6-yl)-methanone]",2

# The remaining compounds from weak to strong by Ki, led by results:
row,Ki [nM],Structure (SMILES)
1,5200,"O=C(c1ccc2c(c1)CCN(C(=O)C1CCCCC1)C2)N1CCN(CC2CCCO2)CC1 (stereo not shown) [Example 151, Cyclohexyl-{6-[4-(tetrahydro-furan-2-ylmethyl)-piperazine-1-carbonyl]-3,4-dihydro-1H-isoquinolin-2-yl}-methanone]"
2,4090,"O=C(c1ccc2c(c1)CCN(C(=O)C1CCCCC1)C2)N1CCC(N2CCOCC2)CC1 [Example 158, Cyclohexyl-[6-(4-morpholin-4-yl-piperidine-1-carbonyl)-3,4-dihydro-1H-isoquinolin-2-yl]-methanone]"
3,1390,"O=C(C1CCCCC1)N1CCc2cc(CN3CCOCC3)ccc2C1 [Example 167, Cyclohexyl-(6-morpholin-4-ylmethyl-3,4-dihydro-1H-isoquinolin-2-yl)-methanone]"
4,860,"O=C(C1CCCCC1)N1CCc2cc(CN3CCN(C4CCC4)CC3)ccc2C1 [Example 170, [6-(4-Cyclobutyl-piperazin-1-ylmethyl)-3,4-dihydro-1H-isoquinolin-2-yl]-cyclohexyl-methanone]"
5,650,"CN(C)[C@@H]1CCN(C(=O)c2ccc3c(c2)CCN(C(=O)C2CCCCC2)C3)C1 [Example 155, (R)-Cyclohexyl-[6-(3-dimethylamino-pyrrolidine-1-carbonyl)-3,4-dihydro-1H-isoquinolin-2-yl]-methanone]"
6,421,"CN1CCC(N(C)C(=O)c2ccc3c(c2)CCN(C(=O)C2CCCCC2)C3)C1 (stereo not shown) [Example 161, 2-Cyclohexanecarbonyl-1,2,3,4-tetrahydro-isoquinoline-6-carboxylic acid methyl-(1-methyl-pyrrolidin-3-yl)-amide]"
7,340,"CCCN1CCc2cc(C(=O)N3CCC(C(C)(C)C)CC3)ccc2C1 [Example 182, (4-tert-Butyl-piperidin-1-yl)-(2-propyl-1,2,3,4-tetrahydro-isoquinolin-6-yl)-methanone]"
8,300,"O=C(c1ccc2c(c1)CCN(C(=O)C1CCCCC1)C2)N1CC2CCN(C3CCC3)C2C1 (stereo not shown) [Example 165, (1-Cyclobutyl-hexahydro-pyrrolo[3,4-b]pyrrol-5-yl)-(2-cyclohexanecarbonyl-1,2,3,4-tetrahydro-isoquinolin-6-yl)-methanone]"
9,269,"O=C(C1CCCCC1)N1CCc2cc(CN3CCC[C@H]3CN3CCCC3)ccc2C1 [Example 169, Cyclohexyl-[6-(2-pyrrolidin-1-ylmethyl-pyrrolidin-1-ylmethyl)-3,4-dihydro-1H-isoquinolin-2-yl]-methanone]"
10,110,"O=C(c1ccc2c(c1)CCN(C(=O)C1CCCCC1)C2)N1CCC(N2CCCCC2)CC1 [Example 157, [6-([1,4′]Bipiperidinyl-1′-carbonyl)-3,4-dihydro-1H-isoquinolin-2-yl]-cyclohexyl-methanone]"
11,109,"CC(C)N1CCC(C(=O)N2CCc3cc(C(=O)N4CCOCC4)ccc3C2)CC1 [Example 149, [2-(1-Isopropyl-piperidine-4-carbonyl)-1,2,3,4-tetrahydro-isoquinolin-6-yl]-morpholin-4-yl-methanone]"
12,54,"O=C(c1ccc2c(c1)CCN(C(=O)C1CCCCC1)C2)N1CCN2CCCC2C1 (stereo not shown) [Example 153, Cyclohexyl-[6-(hexahydro-pyrrolo[1,2-a]pyrazine-2-carbonyl)-3,4-dihydro-1H-isoquinolin-2-yl]-methanone]"
13,30,"CN(C)[C@H]1CCN(C(=O)c2ccc3c(c2)CCN(C(=O)C2CCCCC2)C3)C1 [Example 156, (S)-Cyclohexyl-[6-(3-dimethylamino-pyrrolidine-1-carbonyl)-3,4-dihydro-1H-isoquinolin-2-yl]-methanone]"
14,23,"O=C(C1CCCCC1)N1CCc2cc(CN3CCCN(C4CCC4)CC3)ccc2C1 [Example 171, [6-(4-Cyclobutyl-[1,4]diazepan-1-ylmethyl)-3,4-dihydro-1H-isoquinolin-2-yl]-cyclohexyl-methanone]"
15,13,"O=C(C1CCCCC1)N1CCc2cc(CN3CCN4CCCCC4C3)ccc2C1 (stereo not shown) [Example 168, Cyclohexyl-[6-(octahydro-pyrido[1,2-a]pyrazin-2-ylmethyl)-3,4-dihydro-1H-isoquinolin-2-yl]-methanone]"
16,9,"O=C(C1CCCCC1)N1CCc2cc(C(=O)N3CCC[C@H]3CN3CCCC3)ccc2C1 [Example 150, (S)-Cyclohexyl-[6-(2-Pyrrolidin-1-ylmethyl-pyrrolidine-1-carbonyl)-3,4-dihydro-1H-isoquinolin-2-yl]-methanone]"
17,4,"CC(C)N1CCCN(C(=O)c2ccc3c(c2)CCN(C(=O)C2CCCCC2)C3)CC1 [Example 162, Cyclohexyl-[6-(4-isopropyl-[1,4]diazepane-1-carbonyl)-3,4-dihydro-1H-isoquinolin-2-yl]-methanone]"
18,2,"CC(C)N1CCc2cc(C(=O)N3CCN4CCCCC4C3)ccc2C1 (stereo not shown) [Example 175, (2-Isopropyl-1,2,3,4-tetrahydro-isoquinolin-6-yl)-(octahydro-pyrido[1,2-a]pyrazin-2-yl)-methanone]"
19,1,"COC1CCCC(C(=O)N2CCc3cc(C(=O)N4CCCN(C5CCC5)CC4)ccc3C2)C1 (stereo not shown) [Example 146, [6-(4-Cyclobutyl-[1,4]diazepane-1-carbonyl)-3,4-dihydro-1H-isoquinolin-2-yl]-(3-methoxy-cyclohexyl)-methanone]"
20,1,"CO[C@H]1CC[C@@H](C(=O)N2CCc3cc(C(=O)N4CCCN(C5CCC5)CC4)ccc3C2)CC1 [Example 148, cis-[6-(4-Cyclobutyl-[1,4]diazepane-1-carbonyl)-3,4-dihydro-1H-isoquinolin-2-yl]-(4-methoxy-cyclohexyl)-methanone]"
21,1,"CCCN1CCc2cc(C(=O)N3CCCN(C4CCC4)CC3)ccc2C1 [Example 183, (4-Cyclobutyl-[1,4]diazepan-1-yl)-(2-propyl-1,2,3,4-tetrahydro-isoquinolin-6-yl)-methanone]"
